Target: T1, human chemokine receptor 2 isoform B (Homo sapiens, UniProt P41597)
T1 construct: host or cells: CHOK1-CCR2B-A5 (CHO-K1)
T1 sequence (P41597 1-360 isoform P41597-2): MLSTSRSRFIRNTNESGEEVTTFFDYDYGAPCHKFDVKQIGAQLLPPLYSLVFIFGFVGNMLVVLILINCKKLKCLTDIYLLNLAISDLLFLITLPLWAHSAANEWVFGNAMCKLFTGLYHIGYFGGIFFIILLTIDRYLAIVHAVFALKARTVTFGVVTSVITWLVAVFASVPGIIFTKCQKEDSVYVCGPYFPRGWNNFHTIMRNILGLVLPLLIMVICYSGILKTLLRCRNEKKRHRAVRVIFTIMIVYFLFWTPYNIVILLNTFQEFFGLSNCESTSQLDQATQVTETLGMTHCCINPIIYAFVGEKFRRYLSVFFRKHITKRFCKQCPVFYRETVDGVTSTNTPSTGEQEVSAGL
Assay: Calcium mobilization assay (FLIPR, CHOK1-CCR2B-A5 cells, 20 nM MCP-1)
Assay type: cell-based
Conditions: Ca mobilisation assay, CCR2, antagonist activity vs 20 nM MCP-1
Method: CHOK1-CCR2B-A5 cells (from Euroscreen) stably overexpressing the human chemokine receptor 2 isoform B were cultured in Nutrient Hams F12 medium supplemented with 5% FBS, 100 U/ml penicillin, 100 μg/ml streptomycin, 400 μg/ml G418 and 5 μg/ml puromycin.
For the assay cells were grown overnight in 384-well black clear flat bottom polystyrene plates (Costar) at 37° C. at 5% CO2. After washing with DMEM, 20 mM Hepes, 2.5 mM probenecid, 0.1% BSA (DMEM assay buffer) cells were loaded with 4 μM Fluo-4 in the same DMEM assay buffer for 2 hours at 30° C. Excess dye was removed and cells were washed with DMEM assay buffer. 384-well compound plates were prepared with DMEM assay buffer/0.5% DMSO with or without various concentrations of test compounds. Usually compounds were tested for agonist and antagonist activity.
Test compounds were added to the assay plate and agonist activity was monitored as fluorescence for 80 seconds with a FLIPR (488 nm excitation; 510-570 nm emission; Molecular Devices). After 20-30 min. of incubation at 30° C., 20 nM MCP-1 (R&D; Roche) was added and fluorescence was monitored again for 80 seconds. Increases in intracellular calcium are reported as maximum fluorescence after agonist exposure minus basal fluorescence before exposure. Antagonist activity is indicated as inhibitor concentration required for 50% inhibition of specific calcium increases.

Row | Compound | IC50
1 | O=C(/C=C/c1ccc(F)c(F)c1)N1CCC(=O)N(CC(O)CN2CCCCC2)CC1 (racemic) [Example 177, (rac)-1-[(E)-3-(3,4-Difluoro-phenyl)-acryloyl]-4-(2-hydroxy-3-piperidin-1-yl-propyl)-[1,4]diazepan-5-one] | 954 nM
2 | O=C(O)C(CCCN1CCCCC1)N1CCN(C(=O)/C=C/c2ccc(Cl)c(Cl)c2)CCC1=O (racemic) [Example 180, Lithium; (rac)-2-{4-[(E)-3-(3,4-dichloro-phenyl)-acryloyl]-7-oxo-[1,4]diazepan-1-yl}-5-piperidin-1-yl-pentanoate] | 319 nM
3 | O=C(O)C(CN1CCCCC1)CN1CCN(C(=O)/C=C/c2ccc(Cl)c(Cl)c2)CCC1=O (racemic) [Example 183, Lithium; (rac)-3-{4-[(E)-3-(3,4-dichloro-phenyl)-acryloyl]-7-oxo-[1,4]diazepan-1-yl}-2-piperidin-1-ylmethyl-propionate] | 1230 nM
4 | CC1CN(C(=O)/C=C/c2ccc(Cl)c(Cl)c2)CCN(CCCN2CCCCC2)C1=O (racemic) [Example 187, (rac)-1-[(E)-3-(3,4-Dichloro-phenyl)-acryloyl]-6-methyl-4-(3-piperidin-1-yl-propyl)-[1,4]diazepan-5-one] | 385 nM
5 | CC1(O)CCCN(CCCN2CCN(C(=O)/C=C/c3ccc(F)c(Cl)c3)CCC2=O)C1 (racemic) [Example 205] | 325 nM
6 | O=C(/C=C/c1ccc(F)c(Cl)c1)N1CCC(=O)N(CCCN2CCCCC2CO)CC1 (racemic) [Example 210] | 1140 nM
7 | O=C(/C=C/c1ccc(F)c(Cl)c1)N1CCC(=O)N(CCCN2CCCC(CO)C2)CC1 (racemic) [Example 211] | 363 nM
8 | O=C(/C=C/c1ccc(F)c(Cl)c1)N1CCC(=O)N(CCCN2CC[C@H](CO)[C@H](O)C2)CC1 (racemic) [Example 215] | 356 nM
9 | COC[C@H]1CCN(CCCN2CCN(C(=O)/C=C/c3ccc(F)c(Cl)c3)CCC2=O)C[C@H]1O (racemic) [Example 216] | 726 nM
10 | C[C@@H]1[C@H](O)CCCN1CCCN1CCN(C(=O)/C=C/c2ccc(Cl)c(Cl)c2)CCC1=O (racemic) [Example 226, (rac,cis)-1-[(E)-3-(3,4-Dichloro-phenyl)-acryloyl]-4-[3-(3-hydroxy-2-methyl-piperidin-1-yl)-propyl]-[1,4]diazepan-5-one] | 464 nM
11 | O=C(/C=C/c1ccc(Cl)c(Cl)c1)N1CCC(=O)N(CCCN2CCCCC2CO)CC1 (racemic) [Example 227] | 409 nM
12 | O=C(/C=C/c1ccc(Cl)c(Cl)c1)N1CCC(=O)N(CCCN2CC[C@@H](O)[C@@H](F)C2)CC1 (racemic) [Example 233, (rac, cis)-1-[(E)-3-(3,4-Dichloro-phenyl)-acryloyl]-4-[3-(3-fluoro-4-hydroxy-piperidin-1-yl)-propyl]-[1,4]diazepan-5-one] | 359 nM
13 | COCC1CCCN(CCCN2CCN(C(=O)/C=C/c3ccc(Cl)c(Cl)c3)CCC2=O)C1 (racemic) [Example 236] | 565 nM
14 | CC(C)N1CCN(CCCN2CCN(C(=O)/C=C/c3ccc(Cl)c(Cl)c3)CCC2=O)CC1C (racemic) [Example 246, (rac)-1-[(E)-3-(3,4-Dichloro-phenyl)-acryloyl]-4-[3-(4-isopropyl-3-methyl-piperazin-1-yl)-propyl]-[1,4]diazepan-5-one] | 421 nM
15 | COCC1(C)CCCN(CCCN2CCN(C(=O)/C=C/c3ccc(Cl)c(Cl)c3)CCC2=O)C1 (racemic) [Example 249] | 1250 nM
16 | CC1(CO)CCCCN1CCCN1CCN(C(=O)/C=C/c2ccc(Cl)c(Cl)c2)CCC1=O (racemic) [Example 250] | 812 nM
17 | CC1(CO)CCCN1CCCN1CCN(C(=O)/C=C/c2ccc(Cl)c(Cl)c2)CCC1=O (racemic) [Example 255] | 561 nM
18 | COC(=O)NC1CCCN(CCCN2CCN(C(=O)/C=C/c3ccc(Cl)c(Cl)c3)CCC2=O)C1 (racemic) [Example 256] | 1070 nM
19 | CO[C@@H]1CN(CCCN2CCN(C(=O)/C=C/c3ccc(Cl)c(Cl)c3)CCC2=O)CC[C@@H]1CO (racemic) [Example 269, (rac,cis)-1-[(E)-3-(3,4-Dichloro-phenyl)-acryloyl]-4-[3-(3-methoxy-4-hydroxymethyl-piperidin-1-yl)-propyl]-[1,4]diazepan-5-one] | 619 nM

The next molecules have a lower IC50 than those just listed; values first:

Row | IC50 | Compound
20 | 3 nM | COC(=O)C(CCCN1CCCCC1)N1CCN(C(=O)/C=C/c2ccc(Cl)c(Cl)c2)CCC1=O (racemic) [Example 179, (rac)-2-{4-[(E)-3-(3,4-Dichloro-phenyl)-acryloyl]-7-oxo-[1,4]diazepan-1-yl}-5-piperidin-1-yl-pentanoic acid methyl ester]
21 | 3 nM | O=C(/C=C/c1ccc(Cl)c(Cl)c1)N1CCC(=O)N(C(CO)CCCN2CCCCC2)CC1 (racemic) [Example 181, (rac)-1-[(E)-3-(3,4-Dichloro-phenyl)-acryloyl]-4-(1-hydroxymethyl-4-piperidin-1-yl-butyl)-[1,4]diazepan-5-one]
22 | 45 nM | C[C@]1(CO)CCN(CCCN2CCN(C(=O)/C=C/c3ccc(F)c(Cl)c3)CCC2=O)C[C@H]1O (racemic) [Example 219]
23 | 169 nM | C[C@@]1(CO)CCN(CCCN2CCN(C(=O)/C=C/c3ccc(F)c(Cl)c3)CCC2=O)C[C@H]1O (racemic) [Example 220]
24 | 13 nM | CC1(C)CCN(CCCN2CCN(C(=O)/C=C/c3ccc(F)c(Cl)c3)CCC2=O)CC1O (racemic) [Example 223]
25 | 149 nM | O=C(/C=C/c1ccc(Cl)c(Cl)c1)N1CCC(=O)N(CCCN2CCCC(CO)C2)CC1 (racemic) [Example 228]
26 | 215 nM | O=C(/C=C/c1ccc(Cl)c(Cl)c1)N1CCC(=O)N(CCCN2CC[C@@H](F)[C@H](O)C2)CC1 (racemic) [Example 230, (rac,trans)-1-[(E)-3-(3,4-Dichloro-phenyl)-acryloyl]-4-[3-(4-fluoro-3-hydroxy-piperidin-1-yl)-propyl]-[1,4]diazepan-5-one]
27 | 91 nM | CC1(O)CCCN(CCCN2CCN(C(=O)/C=C/c3ccc(Cl)c(Cl)c3)CCC2=O)C1 (racemic) [Example 232]
28 | 112 nM | CC1CCCN(CCCN2CCN(C(=O)/C=C/c3ccc(Cl)c(Cl)c3)CCC2=O)C1 (racemic) [Example 235]
29 | 54 nM | CC1CCN(CCCN2CCN(C(=O)/C=C/c3ccc(Cl)c(Cl)c3)CCC2=O)CC1O (racemic) [Example 238]
30 | 133 nM | CC1CN(CCCN2CCN(C(=O)/C=C/c3ccc(Cl)c(Cl)c3)CCC2=O)CCC1O (racemic) [Example 243]
31 | 226 nM | CC1(CO)CCCN(CCCN2CCN(C(=O)/C=C/c3ccc(Cl)c(Cl)c3)CCC2=O)C1 (racemic) [Example 248]
32 | 8 nM | O=C(/C=C/c1ccc(Cl)c(Cl)c1)N1CCC(=O)N(CCCN2CCC3(CC3)C(O)C2)CC1 (racemic) [Example 251]
33 | 120 nM | O=C(/C=C/c1ccc(Cl)c(Cl)c1)N1CCC(=O)N(CCCN2CCC(O)C3(CC3)C2)CC1 (racemic) [Example 252]
34 | 132 nM | C[C@@H]1CN(CCCN2CCN(C(=O)/C=C/c3ccc(Cl)c(Cl)c3)CCC2=O)CC[C@@H]1O (racemic) [Example 253]
35 | 182 nM | CC1(C)CN(CCCN2CCN(C(=O)/C=C/c3ccc(Cl)c(Cl)c3)CCC2=O)CCC1O (racemic) [Example 257]
36 | 214 nM | COC[C@H]1CCN(CCCN2CCN(C(=O)/C=C/c3ccc(Cl)c(Cl)c3)CCC2=O)C[C@H]1O (racemic) [Example 267, (rac,cis)-1-[(E)-3-(3,4-Dichloro-phenyl)-acryloyl]-4-[3-(3-hydroxy-4-methoxymethyl-piperidin-1-yl)-propyl]-[1,4]diazepan-5-one]
37 | 215 nM | O=C(/C=C/c1ccc(Cl)c(Cl)c1)N1CCC(=O)N(CCCN2CC[C@H](CO)[C@@H](O)C2)CC1 (racemic) [Example 268, (rac,trans)-1-[(E)-3-(3,4-Dichloro-phenyl)-acryloyl]-4-[3-(3-hydroxy-4-hydroxymethyl-piperidin-1-yl)-propyl]-[1,4]diazepan-5-one]
38 | 10 nM | C[C@]1(CO)CCN(CCCN2CCN(C(=O)/C=C/c3ccc(Cl)c(Cl)c3)CCC2=O)C[C@H]1O (racemic) [Example 270, (rac,cis)-1-[(E)-3-(3,4-Dichloro-phenyl)-acryloyl]-4-[3-(3-hydroxy-4-hydroxymethyl-4-methyl-piperidin-1-yl)-propyl]-[1,4]diazepan-5-one]
39 | 55 nM | C[C@@]1(CO)CCN(CCCN2CCN(C(=O)/C=C/c3ccc(Cl)c(Cl)c3)CCC2=O)C[C@H]1O (racemic) [Example 271, (rac,trans)-1-[(E)-3-(3,4-Dichloro-phenyl)-acryloyl]-4-[3-(3-hydroxy-4-hydroxymethyl-4-methyl-piperidin-1-yl)-propyl]-[1,4]diazepan-5-one]
40 | 191 nM | CC1CCC(O)CN1CCCN1CCN(C(=O)/C=C/c2ccc(Cl)c(Cl)c2)CCC1=O (racemic) [Example 272]

— patent US7632829B2, “Diazepan derivatives” (Hoffmann-La Roche Inc., priority 2006, dated 2009)
